One compound from patent US12577532B2, “Xeno-free and transgene-free reprograming of mesenchymal stem cells toward neural progenitor cells” (UNIVERSITY OF CENTRAL FLORIDA RESEARCH FOUNDATION, INC., priority 2019, dated 2026) can be followed below.

For one assay, the system named is MSC. The experiment in a line: Reprogramming of MSCs toward neural progenitor spheres (neurosphere production). The format is cell-based. Here is the method:
MSC media contains DMEM F:12, 10% KSR, 5% Glutamax, 5% NNEA, 1% Penicillin/streptomycin. We used 12 well treated plates for production.
MSCs are seeded in culture media and allowed to grow up under serum-free conditions until 80% confluence on adherent conditions using laminin as coat.
At stage 1, fresh media and NSC exosomes (and in two methodologies also we used pluripotent cells to enhance de-differentiation) as a source of linage specific signals, are provided to the cultured MSCs (typically following decitabine treatment), and exposed to NSC exosomes for 1-5 days. Following stage 1, (typically at day 5) stage 2 involves switching out media and NSC exosomes and exposing the cells to the fresh media and NSC exosomes for 5-15 days. After stage 2, (typically at day 15 from the start of stage 1) stage 3 involves switching out media and NSC exosomes with fresh media lacking NSC exosomes and allowing the cells to grow for 5-7 days. After stage 3, (typically at day 20-22 from the start of stage 1), neural progenitor spheres (the primary colonies) are isolated from the culture. After isolation occurs, the neurospheres are picked to keep on suspension for expansion and experimentation. […]

Another assay relates to iNSC-MSC. The experiment in a line: Differentiation potential of iNSC-MSC under serum free conditions (immunofluorescence). Type of assay: cell-based. As to conditions: methods using decitabine (method 2 & 4) versus methods without. The text has this:
The resultant cells of the four methods express neural differentiation markers Bill, GFAP and NeuN, especially in the surrounded areas of the spheres. On the other hand, they keep NSC markers Sox2, Sox1 and CD90 on the spheres. […] All nuclei were counterstained with DAPI. Scale bar, 50 μm.

On to `Nc1ncn([C@H]2C[C@H](O)[C@@H](CO)O2)c(=O)n1` [decitabine, 5-aza-2′-deoxycytidine], for which the “number of primary neurospheres produced” value in the assay on MSC (MSC cultured with NSC exosomes, day 21 of production (FIG. 2B)) is on record as “enhances the number of spheres produced”. The spheres produced entry in the assay with MSC (MSC treated without NSC exosomes) is recorded as “no spheres were found produced”. Moreover, in the assay on iNSC-MSC, the “immunofluorescence intensities for BII tubulin” value is “significant less iimmunofluorescence intensities”.
